# Laboratory results from patent US20160289449A1, “PROTEIN-BASED BIOPLASTICS AND METHODS OF USE” (University of Georgia Research Foundation, Inc., priority 2015, published 2016).
# Assays:
# bacteria = details: cited from earlier work
# [1] = test system: Gram (+) specie Bacillius subtilis; assay: Drug elution and zone of inhibition study (disk susceptibility, M02-A11); format: cell-based, Bacillus subtilis
# Protocol: (§1) After preparation, the samples were then cut into disk-sized plastics that were applied to the surface of Mueller-Hinton agar dishes that had been already inoculated with either Gram (+) specie Bacillius subtilis or the Gram (−) specie Escherichia coli at a concentration of 1-5×10^8 cells/mL. After application, the plates were then incubated for five days 30° C., during which the zones of inhibition were measured every 24 hours to determine the change of diameter of the inhibition zone size over time. Samples were run in triplicate (n=3) for each plastic type-additive combination (as well as the LDPE plastic control samples) in order to ensure precision.
# (§2) To compare the ability of plastics to elute drug and to determine the effect of the addition of LDPE into plastics, statistical analyses were performed by fitting a regression model.
# [2] = test system: Gram (−) specie Escherichia coli; assay: as above; format: cell-based
# Protocol: as §1, §2
# [3] = plastics with 15% of the additive, range over plastic types
# [4] = plastics with the additive imbedded
smiles,measurement,setting,value
OCC(O)CO [glycerol],concentration required for bacteriocidial properties,bacteria,at least 28%
O=C([O-])c1ccccc1.[Na+] [sodium benzoate],zone of inhibition at decreased amount of food preservative (in words),[1]; 10% and 5% additive in the plastic,unable to produce a zone of inhibition
O=NO [sodium nitrite],inhibition zone after 5 days,[2]; [3],0 mm
same,zones of inhibition on inoculated petri dishes (in words),[2]; [4],did not generate any zones of inhibition
same,inhibition zone after 5 days,[1]; [3],0 mm
same,zones of inhibition on inoculated petri dishes (in words),[1]; [4],did not generate any zones of inhibition
